The source of these data is PubChem BioAssay AID2254 (The Scripps Research Institute Molecular Screening Center, 2010).

This assay deals with Serine hydrolase RBBP9 (Homo sapiens) (UniProt O75884). The assay can be described thus: RBBP9 hydrolase inhibition, IC50 by ABPP – biochemical, gel-based ABPP, late-stage follow-up (AID 2254). Particulars: fluorophosphonate probe labeling of RBBP9.
Chain of Serine hydrolase RBBP9 (Homo sapiens) (O75884 whole entry, looked up): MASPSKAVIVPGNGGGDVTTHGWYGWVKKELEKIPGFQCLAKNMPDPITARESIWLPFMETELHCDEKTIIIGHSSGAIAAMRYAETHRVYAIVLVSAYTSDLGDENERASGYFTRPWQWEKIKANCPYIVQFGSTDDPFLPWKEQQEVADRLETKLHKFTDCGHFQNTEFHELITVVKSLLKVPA
As for `C/C(=N\OC(=O)c1ccc(F)cc1)c1nccs1`, the IC50 (usually the concentration that inhibits the measured activity by half) was 5.7 µM.
Under `C/C(=N\OC(=O)c1ccc(Cl)cc1)c1nccs1` stands 1.9 µM.
In the case of `COc1ccc(C(=O)O/N=C(\C)c2nccs2)cc1`, the IC50 is 9.1 µM.
For the compound `C/C(=N\OC(=O)C1CCCCC1)c1nccs1`, the IC50 was 0.635 µM.
